# Measurements from publication PMC4249970 (PLoS ONE, 2014).
# Key:
# [1] = tested on: acetic acid-induced writhing in CD-1 male mice; assay: acetic acid writhing test (model of visceral pain); format: in vivo; settings: for number of stretches: writhing test 30 minutes after antagonist
# Method: After acetic acid administration, mice were placed in individual transparent containers and, after 5 min, the number of writhes was counted during a 10 min period.
# The animals, CD-1 male mice (25–27 g), were redistributed in groups, two of which were used as the control group. […] All drugs were intraperitoneally (i.p.) administered, 30 minutes before the algogen agent. Control mice were treated with 10 ml/kg of saline solution. Each group included 10–12 animals; those animals showing behavioral alterations were previously discarded. Each animal was used only once. An observer who was unaware of the different treatments carried out the collection of data.
# The experimental test used was the acetic acid writhing test. The effect of the i.p. administration of 10 ml/kg of acetic acid (2%) was measured by quantifying the number of writhing responses in the three groups of animals over a 10 minutes period. Responses were measured starting 5 minutes after the algogen agent was administered. The animals used were supplied by the animal house of Universidad Rey Juan Carlos. Room temperature was kept at 22±1°C. A 12 hours light - dark cycle was started at 8:00 a.m., at constant humidity. All animals were given free access to food and water.
# human recombinant COX-2 = target: T1, human recombinant COX-2 (Homo sapiens, UniProt P35354); assay: COX inhibitor screening assay (Cayman kit 700100); format: biochemical; settings: at 10 mM
# T1 construct: purchased Cayman Chemical Company kit 700100
# T1 sequence (P35354 18-604): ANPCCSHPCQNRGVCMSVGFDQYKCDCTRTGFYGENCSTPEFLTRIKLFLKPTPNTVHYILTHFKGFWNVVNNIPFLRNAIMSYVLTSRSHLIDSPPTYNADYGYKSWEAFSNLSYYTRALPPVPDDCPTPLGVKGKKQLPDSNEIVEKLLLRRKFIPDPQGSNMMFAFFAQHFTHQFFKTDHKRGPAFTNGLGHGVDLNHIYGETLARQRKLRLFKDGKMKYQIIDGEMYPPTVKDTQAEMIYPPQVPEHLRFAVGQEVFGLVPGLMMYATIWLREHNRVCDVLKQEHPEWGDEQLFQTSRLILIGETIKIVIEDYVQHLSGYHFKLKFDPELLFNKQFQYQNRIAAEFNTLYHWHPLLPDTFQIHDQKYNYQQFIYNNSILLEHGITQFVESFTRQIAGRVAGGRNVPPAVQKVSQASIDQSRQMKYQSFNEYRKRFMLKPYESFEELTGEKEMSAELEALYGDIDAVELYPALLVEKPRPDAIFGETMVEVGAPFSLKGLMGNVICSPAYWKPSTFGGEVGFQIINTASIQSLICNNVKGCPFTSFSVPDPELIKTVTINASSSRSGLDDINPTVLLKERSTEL
# Source text: A COX inhibitor screening assay (kit 700100) was used to determine the activity of isolated ovine COX-1 and human recombinant COX-2 as described by the manufacturer (Cayman Chemical Company, USA).
# TRPV1 = assay: Ca2+ fluorographic assay, TRPV1-SH-SY5Y cells activated by 10 µM capsaicin; format: cell-based; settings: 50 µM compound
# Method: (§1) For fluorescence assays, cells expressing TRP channels (TRPV1-SH-SY5Y, TRPM8-HEK and TRPA1-IMR90) were seeded in 96-well plates (Corning Incorporated, Corning, NY) at a cell density of 40,000 cells 2 days before treatment. The day of treatment the medium was replaced with 100 µL of the dye loading solution Fluo-4 NW supplemented with probenecid 2.5 mM. Then the compounds dissolved in DMSO were added at the desired concentrations and the plate(s) were incubated at 37°C in a humidified atmosphere of 5% CO2 for 60 minutes.
# (§2) The fluorescence was measured using instrument settings appropriate for excitation at 485 nm and emission at 535 nm. (POLARstar Omega BMG LAB tech). A baseline recording of 7 cycles was recorded prior to stimulation with the agonist (10 µM capsaicin for TRPV1, 100 µM menthol for TRPM8, and 100 µM AITC for TRPA1). The corresponding antagonist (10 µM Ruthenium Red for TRPV1 and TRPA1, 100 µM AMTB for TRPM8) was added for the blockade. The changes in fluorescence intensity were recorded during 15 cycles more. DMSO, at the higher concentration used in the experiment, was added to the control wells.
# (§3) The degree of blockage (%) of TRP channel activity was calculated by: [drawing 1]
# TRPM8 = target: T2, TRPM8 (Homo sapiens, UniProt Q7Z2W7); assay: Ca2+ fluorographic assay, TRPM8-HEK cells activated with 100 µM menthol; format: cell-based; settings: 50 µM compound
# T2 construct: expressed in transfected cells; host or cells: HEK
# Method: as §1, §2, §3
# TRPA1 [2] = target: T3, TRPA1 (Homo sapiens, UniProt O75762); assay: Ca2+ fluorographic assay, TRPA1-IMR90 cells activated with 100 µM AITC; format: cell-based; parameters: expressed in transfected cells; host or cells: IMR90
# Method: as §1, §2, §3
# TRPA1 [3] = target: T3, TRPA1; assay: whole-cell voltage clamp of AITC-evoked currents in hTRPA1-expressing IMR-90 cells; format: cell-based; parameters: expressed in transfected cells; host or cells: IMR-90; settings: 100 µM AITC
# Method: A) Representative whole-cell voltage clamp recording from hTRPA1-expressing IMR-90. Currents were measured every second during a holding potential of -60 mV. Pre-application of 6a/b (20 s) was followed by co-application with 100 µM AITC for 60s in presence of 2.0 mM extracellular Ca^2+. Current traces of different colours denote the different concentrations of compound 6a/b tested. B) Dose response of compound 6a/b blockade activity. Solid line depicts the fitting to a Michaelis isotherm. […] Data are given as mean ± sem, with n≥4 cells) per data point. (TIF) Click here for additional data file.
# A) Representative whole-cell voltage clamp recording from hTRPA1-expressing IMR-90 cells in the absence of extracellular Ca^2+. Ionic currents, at positive and negative potentials were measured every 2s during a 350 ms voltage ramp from −60 mV to +60 mV and evoked with 100 µM AITC followed by the addition of 100 µM compound 6a/b for 20s. AITC was present with drug application and after application to evaluated current reversibility B) Current-voltage relationships of TRPA1 in the absence and presence of 100 µM compound 6a/b in Ca^2+ free medium. […] Data were obtained from n≥4 cells. (TIF) Click here for additional data file.
# [4] = i.p. 30 minutes before acetic acid
# T3 sequence (O75762 whole entry): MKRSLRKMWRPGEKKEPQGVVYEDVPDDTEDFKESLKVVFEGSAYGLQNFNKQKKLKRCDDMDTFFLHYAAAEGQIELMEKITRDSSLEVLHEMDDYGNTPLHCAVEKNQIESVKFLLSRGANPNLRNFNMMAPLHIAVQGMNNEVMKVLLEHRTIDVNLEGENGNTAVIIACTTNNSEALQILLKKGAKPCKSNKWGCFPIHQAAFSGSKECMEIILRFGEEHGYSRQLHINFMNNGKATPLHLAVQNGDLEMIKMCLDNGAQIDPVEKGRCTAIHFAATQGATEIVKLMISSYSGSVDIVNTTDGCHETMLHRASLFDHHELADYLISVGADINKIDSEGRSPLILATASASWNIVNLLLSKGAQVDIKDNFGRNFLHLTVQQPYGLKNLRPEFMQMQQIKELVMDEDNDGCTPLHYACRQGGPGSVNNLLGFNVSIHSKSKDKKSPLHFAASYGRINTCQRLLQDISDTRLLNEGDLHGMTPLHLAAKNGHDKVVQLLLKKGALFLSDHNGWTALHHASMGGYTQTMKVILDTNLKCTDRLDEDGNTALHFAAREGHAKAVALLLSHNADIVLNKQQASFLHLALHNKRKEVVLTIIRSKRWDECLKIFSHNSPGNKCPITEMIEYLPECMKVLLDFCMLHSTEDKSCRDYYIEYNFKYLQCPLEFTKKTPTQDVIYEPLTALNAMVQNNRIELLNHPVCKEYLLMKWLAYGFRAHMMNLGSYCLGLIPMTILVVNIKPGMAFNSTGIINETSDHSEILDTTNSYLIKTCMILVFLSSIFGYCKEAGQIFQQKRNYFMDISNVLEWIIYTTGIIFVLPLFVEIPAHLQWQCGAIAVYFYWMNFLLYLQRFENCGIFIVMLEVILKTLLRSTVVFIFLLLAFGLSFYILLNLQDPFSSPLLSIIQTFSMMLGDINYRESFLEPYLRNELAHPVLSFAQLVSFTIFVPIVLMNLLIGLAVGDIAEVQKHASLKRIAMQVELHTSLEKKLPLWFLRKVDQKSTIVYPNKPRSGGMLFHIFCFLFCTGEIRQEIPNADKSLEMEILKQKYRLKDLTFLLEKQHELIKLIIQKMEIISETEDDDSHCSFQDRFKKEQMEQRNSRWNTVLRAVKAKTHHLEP
# T2 sequence (Q7Z2W7 whole entry, species assumed): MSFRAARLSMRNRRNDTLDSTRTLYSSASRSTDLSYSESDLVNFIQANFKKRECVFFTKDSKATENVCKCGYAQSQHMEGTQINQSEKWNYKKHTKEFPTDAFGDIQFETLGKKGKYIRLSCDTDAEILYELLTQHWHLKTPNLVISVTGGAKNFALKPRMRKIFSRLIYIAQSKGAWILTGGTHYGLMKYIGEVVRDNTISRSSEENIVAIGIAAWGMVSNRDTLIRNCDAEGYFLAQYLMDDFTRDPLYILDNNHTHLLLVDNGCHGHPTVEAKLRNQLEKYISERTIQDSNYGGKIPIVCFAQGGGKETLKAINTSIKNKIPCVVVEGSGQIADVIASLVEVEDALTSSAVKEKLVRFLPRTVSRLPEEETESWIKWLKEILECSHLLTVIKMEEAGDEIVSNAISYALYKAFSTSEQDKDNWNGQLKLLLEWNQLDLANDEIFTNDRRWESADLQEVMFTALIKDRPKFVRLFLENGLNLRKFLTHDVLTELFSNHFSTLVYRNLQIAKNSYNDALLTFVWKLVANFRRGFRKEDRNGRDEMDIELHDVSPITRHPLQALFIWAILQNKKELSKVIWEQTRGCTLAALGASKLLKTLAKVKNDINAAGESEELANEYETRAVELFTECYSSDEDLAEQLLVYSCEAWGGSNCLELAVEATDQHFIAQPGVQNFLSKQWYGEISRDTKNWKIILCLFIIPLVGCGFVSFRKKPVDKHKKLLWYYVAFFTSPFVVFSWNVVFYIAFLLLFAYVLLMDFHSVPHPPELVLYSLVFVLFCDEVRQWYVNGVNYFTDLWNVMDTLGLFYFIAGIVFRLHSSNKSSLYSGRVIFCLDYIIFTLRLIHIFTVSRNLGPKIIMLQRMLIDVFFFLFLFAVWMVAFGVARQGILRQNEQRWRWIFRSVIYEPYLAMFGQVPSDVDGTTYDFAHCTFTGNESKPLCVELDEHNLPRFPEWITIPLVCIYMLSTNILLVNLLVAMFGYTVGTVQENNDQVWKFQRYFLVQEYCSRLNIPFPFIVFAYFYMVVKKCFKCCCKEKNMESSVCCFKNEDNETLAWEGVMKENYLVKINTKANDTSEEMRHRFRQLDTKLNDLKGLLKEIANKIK
smiles,measurement,setting,value
"CC(=O)NC12CC3CC(CC(O)(C3)C1)C2 [compound 5, N-3-hydroxyadamantan-1-yl acetamide]",dose at which the analgesic effect saturated,[1]; [4],200 mg/kg
same,antinociceptive activity,"[1]; i.p. 30 minutes before acetic acid, similar to paracetamol",~40%
"CC(=O)NC1C2CC3CC1CC(O)(C3)C2 (stereo not shown) [compound 6a, N-5-hydroxyadamantan-2-yl acetamide]",melting point,,184 °C
"CC(=O)NC1C2CC3CC1CC(O)(C3)C2 (stereo not shown) [compound 6a/b, N-5-hydroxyadamantan-2-yl acetamide]","analgesic efficacy at saturation, compared with paracetamol and morphine",[1]; at saturation (750 mg/kg i.p.),significantly higher than paracetamol and similar to morphine
same,number of stretches,[1]; compound given 30 minutes before CB1 antagonist AM251 (3 mg/kg i.p.),13±1
same,number of stretches,[1]; compound given 30 minutes before CB2 antagonist AM630 (1 mg/kg i.p.),15.5±1.7
same,dose at which the analgesic effect saturated,[1]; [4],750 mg/kg
same,effect on COX-2 enzymatic activity,human recombinant COX-2,did not affect the enzymatic activity
same,effect on TRPV1 channel activity,TRPV1,No significative effect
same,effect on TRPM8 channel activity,TRPM8,No significative effect
same,blockade of TRPA1 channel activity,"TRPA1 [2]; 50 µM compound, 100 µM AITC",up to 85%
same,IC50,"TRPA1 [2]; dose-response curve, 100 µM AITC, mean ± SEM, n ≥5, read-out: TRPA1 inhibition IC50",2.6 µM
same,nH (hill coefficient) of TRPA1 inhibition,TRPA1 [2]; fit to a binding isotherm,0.21
same,IC50,"TRPA1 [3]; 2.0 mM extracellular Ca2+, holding potential -60 mV, estimated, read-out: IC50 of blockade of TRPA1-mediated currents",10.6 ± 0.7 µM
same,IC50,"TRPA1 [3]; absence of extracellular Ca2+, inferred, saturation of blockade not reached, read-out: IC50 of blockade of TRPA1 currents",≥ 80 µM
"CC(=O)Nc1ccc(O)cc1 [paracetamol, 4-hydroxyacetanilide, reference compound]",reduction of the nociceptic behavior (writhes),[1]; 100 mg/kg i.p. 30 minutes before acetic acid,40%
